Source: patent US20250230193A1, “CYCLIC COMPOUND HAVING SELECTIVE KRAS INHIBITORY EFFECT ON HRAS AND NRAS” (CHUGAI SEIYAKU KABUSHIKI KAISHA, priority 2022, published 2025)

Legend:
[1] = target: GDP-bound NRAS wild-type protein (Homo sapiens, UniProt P01111); experiment: Binding to NRAS by surface plasmon resonance (SPR), Single Cycle Kinetics; details: SPR; KD ratio class
[2] = target: GDP-bound HRAS wild-type protein (Homo sapiens, UniProt P01112); experiment: Binding to HRAS by surface plasmon resonance (SPR), Single Cycle Kinetics; details: SPR; KD ratio class
GDP-bound HRAS wild-type protein, sequence (P01112 whole entry): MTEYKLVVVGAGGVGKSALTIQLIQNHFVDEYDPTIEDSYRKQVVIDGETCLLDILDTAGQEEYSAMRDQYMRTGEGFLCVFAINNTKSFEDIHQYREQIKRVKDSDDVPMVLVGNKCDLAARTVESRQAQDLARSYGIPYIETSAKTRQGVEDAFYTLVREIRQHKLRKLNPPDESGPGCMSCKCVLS

[3] = test system: human lung cancer strain NCI-H441; experiment: cells; details: NCI-H441, 96 h, read-out: NCI-H441 IC50 (nM)

GDP-bound NRAS wild-type protein, sequence (P01111 whole entry): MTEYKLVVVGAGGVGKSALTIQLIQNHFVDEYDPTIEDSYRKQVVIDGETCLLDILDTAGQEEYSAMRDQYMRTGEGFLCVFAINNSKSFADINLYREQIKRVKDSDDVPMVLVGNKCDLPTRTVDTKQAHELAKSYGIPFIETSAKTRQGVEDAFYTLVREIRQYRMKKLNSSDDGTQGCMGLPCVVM

| SMILES | IC50 [3] [nM] | NRAS/KRAS (ratio of KD value for GDP-bound NRAS wild-type protein to KD value for KRAS) [1] | HRAS/KRAS (ratio of KD value for GDP-bound HRAS wild-type protein to KD value for KRAS) [2] |
| --- | --- | --- | --- |
| CC[C@H](C)[C@@H]1NC(=O)[C@H](CC)N(C)C(=O)C[C@@H](C(=O)N(C)C)N(C)C(=O)[C@H](C2CCCC2)N(C)C(=O)C2(CCC2)NC(=O)[C@@H]2CCCN2C(=O)[C@H](CCc2cc(F)c(C(F)(F)F)c(F)c2)NC(=O)CN(C)C(=O)[C@H](CC2CCC(F)(F)CC2)N2CC/C=C\C[C@@H](C2=O)N(C)C(=O)CN(C)C1=O [PP1461] | 121 | A (a compound having 10 or more and less than 20 is denoted as A) | A (a compound having 10 or more and less than 20 is denoted as A) |
| CCO[C@@H]1C[C@H]2C(=O)NC3(CCC3)C(=O)N(C)[C@@H](C(CC)CC)C(=O)N(C)[C@H](C(=O)N3CCCC3)CC(=O)N(C)[C@@H](COC)C(=O)N[C@@H]([C@@H](C)CC)C(=O)N(C)CC(=O)N(C)[C@H]3C/C=C\CCN(C3=O)[C@@H](CC3CCCCC3)C(=O)N(C)CC(=O)N[C@@H](CCc3cc(F)c(C(F)(F)F)c(F)c3)C(=O)N2C1 [PP1438] | 89.4 | AA (a compound having 20 or more is denoted as AA) | A (a compound having 10 or more and less than 20 is denoted as A) |
| CCO[C@@H]1C[C@H]2C(=O)NC3(CCC3)C(=O)N(C)[C@@H](C(CC)CC)C(=O)N(C)[C@H](C(=O)N3CCOCC3)CC(=O)N(C)[C@@H](CC3CC3)C(=O)N[C@@H]([C@@H](C)CC)C(=O)N(C)CC(=O)N(C)[C@H]3C/C=C\CCN(C3=O)[C@@H](Cc3ccc(F)cc3C)C(=O)N(C)CC(=O)N[C@@H](CCc3cc(F)c(C(F)(F)F)c(F)c3)C(=O)N2C1 [PP1526] | 118 | A (a compound having 10 or more and less than 20 is denoted as A) | A (a compound having 10 or more and less than 20 is denoted as A) |

Stronger by IC50 [3], values ahead:

| IC50 [3] [nM] | SMILES | NRAS/KRAS (ratio of KD value for GDP-bound NRAS wild-type protein to KD value for KRAS) [1] | HRAS/KRAS (ratio of KD value for GDP-bound HRAS wild-type protein to KD value for KRAS) [2] |
| --- | --- | --- | --- |
| 18.2 | CCO[C@@H]1C[C@H]2C(=O)NC3(CCC3)C(=O)N(C)[C@@H](C3CCCC3)C(=O)N(C)[C@H](C(=O)N3CCOCC3)CC(=O)N(C)[C@@H](CC3CCCC3)C(=O)N[C@@H]([C@@H](C)CC)C(=O)N(C)CC(=O)N(C)[C@H]3C/C=C\CCN(C3=O)[C@@H](Cc3ccc(C(F)(F)F)cc3)C(=O)N(C)CC(=O)N[C@@H](CCc3cc(F)c(C(F)(F)F)c(F)c3)C(=O)N2C1 [PP1393] | A (a compound having 10 or more and less than 20 is denoted as A) | A (a compound having 10 or more and less than 20 is denoted as A) |
| 15.9 | CCO[C@@H]1C[C@H]2C(=O)NC3(CCC3)C(=O)N(C)[C@@H](C(CC)CC)C(=O)N(C)[C@H](C(=O)N(C)C)CC(=O)N(C)[C@@H](CC(C)C)C(=O)N[C@@H]([C@@H](C)CC)C(=O)N(C)CC(=O)N(C)[C@H]3C/C=C\CCN(C3=O)[C@@H](Cc3ccc(C(F)(F)F)cc3)C(=O)N(C)CC(=O)N[C@@H](CCc3ccc(C(F)(F)F)c(OC)c3)C(=O)N2C1 [PP1209] | AA (a compound having 20 or more is denoted as AA) | A (a compound having 10 or more and less than 20 is denoted as A) |
| 11.1 | CCCOC[C@H]1C(=O)N[C@@H]([C@@H](C)CC)C(=O)N(C)CC(=O)N(C)[C@H]2C/C=C\CCN(C2=O)[C@@H](Cc2ccc(C(F)(F)F)cc2)C(=O)N(C)CC(=O)N[C@@H](CCc2cc(F)c(C(F)(F)F)c(F)c2)C(=O)N2C[C@H](OCC)C[C@H]2C(=O)NC2(CC(C)(C)C2)C(=O)N(C)[C@@H](C2CCCC2)C(=O)N(C)[C@H](C(=O)N(CC)CC)CC(=O)N1C [PP1575] | B (a compound having 3 or more and less than 10 is denoted as B) | B (a compound having 3 or more and less than 10 is denoted as B) |
